According to US4001086A (priority 1976, dated 1977):

What was measured:
[1] = system: Cryptococcus neoformans; test: standard agar-dilution assay (MIC); assay type: cell-based
Excerpt: Antibiotic A-30641 inhibits the growth of bacteria and fungi which are pathogenic to animal and plant life. The minimal inhibitory concentrations (MIC's) at which antibiotic A-30641 inhibited a variety of organisms, using a standard agar-dilution assay, are summarized in Table III.

[2] = system: C. albicans; test: dermal C. albicans infection in rabbits, topical treatment; assay type: in vivo; conditions: 10 days, 1% solution in propylene glycol
Excerpt: Antibiotic A-30641 is particularly useful when administered topically.

For `COC1c2cc(Cl)c(O)cc2ON2C(=O)C3NC(=O)C12SS3` (centres unmarked) [antibiotic A-30641], the MIC [1] was greater than 0.156 µg/mL and the “lesions caused by a dermal C. albicans infection, severity and size” value [2] was “reduced in severity and size”.
